Each structure is given as a SMILES string.

The target in the first experiment is CaMKK2 (Homo sapiens, UniProt Q96RR4). Nature of the experiment: CaMKK1/2 biochemical assay, 32P radiometric kinase assay (CaMKK2). Particulars: 0.2 μM. How it is done:
(§1) The following is an example of a CaMKK1/2-biochemical assay. Compounds were tested for CaMKK1/2 inhibition using a ^32P radiometric kinase assay as follows: A freshly prepared kinase reaction buffer (20 mM Hepes (pH 7.5), 10 mM MgCl2, 1 mM EGTA, 0.02% Brij35, 0.02 mg/ml BSA, 0.1 mM Na3VO4, 2 mM DTT, 1% DMSO) was treated with Myelin Basic Protein (final concentration=20 μM), CaCl2) (final concentration=1.5 mM), Calmodulin (final concentration=0.96 μM) and either CaMKK2 (final reaction concentration=120 nM) or CaMKK1 (final reaction concentration=150 nM) and gently mixed. Compounds were added as aliquots from 10 mM DMSO stock solutions such that the final compound concentration in the assay was either 10 μM, 0.5 μM or 0.2 μM. This mixture was allowed to incubate for 20 minutes at room temperature. ^32P-ATP (specific activity 10 μCi/μL) was added and the mixture was allowed to incubate for 2 hours at room temperature. The reaction mixture was spotted onto P81 ion exchange paper. The kinase activity was detected by the filter binding method.
For `O=C1OCCN1c1ccc2[nH]nc(-c3cccc4ccccc34)c2c1` [CL-666], the “Biochemical Data CaMKK2, inh @ 0.2 μM” value was 15% inh @ 0.2 μM.

The experiment is the same for the next values; noted with them: 0.2 μM compound; read-out: CaMKK2 % inhibition @ concentrations shown, 0.2 μM.
`O=C1OCCN1c1ccc2[nH]nc(-c3cc4cccc(Cl)c4[nH]3)c2c1` [Example 14, 3-(3-(7-chloro-1H-indol-2-yl)-1H-indazol-5-yl)oxazolidin-2-one]: the inhibition at 0.2 µM worked out at 71%.
Consider `O=C1OCCN1c1ccc2[nH]nc(-c3cc4ccc(Cl)cc4[nH]3)c2c1` [Example 15, 3-(3-(6-chloro-1H-indol-2-yl)-1H-indazol-5-yl)oxazolidin-2-one], for which the inhibition at 0.2 µM is 85%.
As for `O=C1OCCN1c1ccc2[nH]nc(-c3cc4c(Cl)cccc4[nH]3)c2c1` [Example 17, 3-(3-(4-chloro-1H-indol-2-yl)-1H-indazol-5-yl)oxazolidin-2-one], the inhibition at 0.2 µM was found to be 71%.
On to `COc1cccc2cc(-c3n[nH]c4ccc(N5CCOC5=O)cc34)[nH]c12` [Example 18, 3-(3-(7-methoxy-1H-indol-2-yl)-1H-indazol-5-yl)oxazolidin-2-one], for which the inhibition at 0.2 µM was 61%.
Take `COc1ccc2cc(-c3n[nH]c4ccc(N5CCOC5=O)cc34)[nH]c2c1` [Example 19, 3-(3-(6-methoxy-1H-indol-2-yl)-1H-indazol-5-yl)oxazolidin-2-one]: the inhibition at 0.2 µM came to 87%.
As to `COc1ccc2[nH]c(-c3n[nH]c4ccc(N5CCOC5=O)cc34)cc2c1` [Example 20, 3-(3-(5-methoxy-1H-indol-2-yl)-1H-indazol-5-yl)oxazolidin-2-one], the inhibition at 0.2 µM turned out to be 84%.
Same read-out and setting: next, `COc1cccc2[nH]c(-c3n[nH]c4ccc(N5CCOC5=O)cc34)cc12` [Example 21, 3-(3-(4-methoxy-1H-indol-2-yl)-1H-indazol-5-yl)oxazolidin-2-one]: 84%; `O=C1OCCN1c1ccc2[nH]nc(-c3ccc4ccccc4c3)c2c1` [Example 25, 3-(3-(naphthalen-2-yl)-1H-indazol-5-yl)oxazolidin-2-one]: 67%; `O=C1OCCN1c1ccc2[nH]nc(-c3ccc(-c4ccccc4)cc3)c2c1` [Example 27, 3-(3-([1,1′-biphenyl]-4-yl)-1H-indazol-5-yl)oxazolidin-2-one]: 59%.
Regarding `O=C1OCCN1c1ccc2[nH]nc(-c3ccc4cc[nH]c4c3)c2c1` [Example 28, 3-(3-(1H-indol-6-yl)-1H-indazol-5-yl)oxazolidin-2-one], the inhibition at 0.2 µM stood at 44%.
Take `CN(C)CCNC(=O)c1cccc(/C=C/c2n[nH]c3ccc(N4CCOC4=O)cc23)c1` [Example 29, (E)-N-(2-(dimethylamino)ethyl)-3-(2-(5-(2-oxooxazolidin-3-yl)-1H-indazol-3-yl)vinyl)benzamide]: the inhibition at 0.2 µM was 63%.
As for `CN(C)CCNC(=O)c1ccc(/C=C/c2n[nH]c3ccc(N4CCOC4=O)cc23)cc1` [Example 30, (E)-N-(2-(dimethylamino)ethyl)-4-(2-(5-(2-oxooxazolidin-3-yl)-1H-indazol-3-yl)vinyl)benzamide], the inhibition at 0.2 µM worked out at 75%.
Turning to `O=S1(=O)CCCN1c1ccc2[nH]nc(-c3cc4ccccc4[nH]3)c2c1` [Example 32, 2-(3-(1H-indol-2-yl)-1H-indazol-5-yl)isothiazolidine 1,1-dioxide], the inhibition at 0.2 µM was found to be 84%.
On to `C[C@H]1COC(=O)N1c1ccc2[nH]nc(-c3cc4ccccc4[nH]3)c2c1` [Example 33, (S)-3-(3-(1H-indol-2-yl)-1H-indazol-5-yl)-4-methyloxazolidin-2-one], for which the inhibition at 0.2 µM came to 90%.
As to `C[C@@H]1COC(=O)N1c1ccc2[nH]nc(-c3cc4ccccc4[nH]3)c2c1` [Example 34, (R)-3-(3-(1H-indol-2-yl)-1H-indazol-5-yl)-4-methyloxazolidin-2-one], the inhibition at 0.2 µM amounted to 73%.
Take `O=C1OC[C@H](CO)N1c1ccc2[nH]nc(-c3cc4ccccc4[nH]3)c2c1` [Example 35, (S)-3-(3-(1H-indol-2-yl)-1H-indazol-5-yl)-4-(hydroxymethyl)oxazolidin-2-one]: the inhibition at 0.2 µM stood at 68%.
In the case of `O=C1OC[C@@H](CO)N1c1ccc2[nH]nc(-c3cc4ccccc4[nH]3)c2c1` [Example 36, (R)-3-(3-(1H-indol-2-yl)-1H-indazol-5-yl)-4-(hydroxymethyl)oxazolidin-2-one], the inhibition at 0.2 µM worked out at 57%.
In the case of `O=C1OC[C@H](c2ccccc2)N1c1ccc2[nH]nc(-c3cc4ccccc4[nH]3)c2c1` [Example 37, (S)-3-(3-(1H-indol-2-yl)-1H-indazol-5-yl)-4-phenyloxazolidin-2-one], the inhibition at 0.2 µM was determined as 74%.
Regarding `O=C1OC[C@@H](c2ccccc2)N1c1ccc2[nH]nc(-c3cc4ccccc4[nH]3)c2c1` [Example 38, (R)-3-(3-(1H-indol-2-yl)-1H-indazol-5-yl)-4-phenyloxazolidin-2-one], the inhibition at 0.2 µM came to 50%.
For the compound `CC(C)[C@H]1COC(=O)N1c1ccc2[nH]nc(-c3cc4ccccc4[nH]3)c2c1` [Example 39, (S)-3-(3-(1H-indol-2-yl)-1H-indazol-5-yl)-4-isopropyloxazolidin-2-one], the inhibition at 0.2 µM came out at 72%.
On to `O=C1CCCN1c1ccc2[nH]nc(-c3cc4ccccc4[nH]3)c2c1` [Example 42, 1-(3-(1H-indol-2-yl)-1H-indazol-5-yl)pyrrolidin-2-one], for which the inhibition at 0.2 µM amounted to 56%.
Same read-out and setting: as for `COC(=O)[C@@H]1CCC(=O)N1c1ccc2[nH]nc(-c3cc4ccccc4[nH]3)c2c1` [Example 43, methyl (S)-1-(3-(1H-indol-2-yl)-1H-indazol-5-yl)-5-oxopyrrolidine-2-carboxylate], the figure is 38%; as for `O=C(O)[C@@H]1CCC(=O)N1c1ccc2[nH]nc(-c3cc4ccccc4[nH]3)c2c1` [Example 44, (S)-1-(3-(1H-indol-2-yl)-1H-indazol-5-yl)-5-oxopyrrolidine-2-carboxylic acid], 78%.

The experiment is the same for the next values; noted with them: 0.5 μM.
Regarding `O=C(O)c1n[nH]c2ccc(N3CCOC3=O)cc12` [CL-628], the “Biochemical Data CaMKK2, inh @ 0.5 μM” value is 22% inh @ 0.5 μM.
Still for that read-out and setting: as for `CCOC(=O)c1n[nH]c2ccc(N3CCOC3=O)cc12` [CL-629], the figure is 20% inh @ 0.5 μM.

The experiment is the same for the next values; noted with them: 0.5 μM compound; read-out: CaMKK2 % inhibition @ concentrations shown, 0.5 μM.
Consider `O=C1OCCN1c1ccc2[nH]nc(/C=C/c3ccccc3)c2c1` [Example 9, (E)-3-(3-styryl-1H-indazol-5-yl)oxazolidin-2-one], for which the inhibition at 0.5 µM was 89%.
With `O=C1OCCN1c1ccc2[nH]nc(/C=C/c3cccnc3)c2c1` [Example 10, (E)-3-(3-(2-(pyridin-3-yl)vinyl)-1H-indazol-5-yl)oxazolidin-2-one], the inhibition at 0.5 µM stood at 72%.
For the compound `O=C1OCCN1c1ccc2[nH]nc(/C=C/c3ccncc3)c2c1` [Example 11, (E)-3-(3-(2-(pyridin-4-yl)vinyl)-1H-indazol-5-yl)oxazolidin-2-one], the inhibition at 0.5 µM was found to be 80%.

The experiment is the same for the next values; noted with them: 10 μM compound; read-out: CaMKK2 % inhibition @ concentrations shown, 10 μM.
For the compound `O=C1OCCN1c1ccc2[nH]nc(-c3coc4ccccc34)c2c1` [Example 1, 3-(3-(Benzofuran-3-yl)-1H-indazol-5-yl)oxazolidin-2-one], the inhibition at 10 µM was 72%.
As to `O=C1OCCN1c1ccc2[nH]nc(-n3ccnc3)c2c1` [Example 5, 3-(3-(1H-imidazol-1-yl)-1H-indazol-5-yl)oxazolidin-2-one], the inhibition at 10 µM was 29%.

Another experiment addresses CaMKK1 (Homo sapiens, UniProt Q8N5S9). Nature of the experiment: CaMKK1/2 biochemical assay, 32P radiometric kinase assay (CaMKK1). Particulars: 0.2 μM. The procedure: as §1
`O=C1OCCN1c1ccc2[nH]nc(-c3cccc4ccccc34)c2c1` [CL-666]: the “Biochemical Data CaMKK1, inh @ 0.2 μM” value is less than 5% inh @ 0.2 μM.

The same experiment, now with this note: 0.5 μM.
On to `O=C(O)c1n[nH]c2ccc(N3CCOC3=O)cc12` [CL-628], for which the “Biochemical Data CaMKK1, inh @ 0.5 μM” value is less than 5% inh @ 0.5 μM.
On to `CCOC(=O)c1n[nH]c2ccc(N3CCOC3=O)cc12` [CL-629], for which the “Biochemical Data CaMKK1, inh @ 0.5 μM” value is reported as less than 5% inh @ 0.5 μM.

For the origin of these results see patent US11396505B2, “Inhibitors of CaMKK2 and uses of same” (New York University, priority 2019, dated 2022).
